Assay results as given in US8933079B2, “Pyridone and pyridazinone derivatives as anti-obesity agents” (Boehringer Ingelheim International GmbH, priority 2012, dated 2015).

Target: hMCH-1R (Homo sapiens (Human), UniProt Q99705)
Assay: MCH-1 receptor binding test (125I-MCH binding to hMCH-1R transfected cell membranes)
Conditions: competition with 100 pM 125I-MCH, membranes of CHO/Galpha16 cells stably transfected with hMCH-1R
Experimental: Res Commun. […] After the incubation the reaction is filtered using a cell harvester through 0.5% PEI treated fibreglass filters (GF/B, Unifilter Packard). The membrane-bound radioactivity retained on the filter is then determined after the addition of scintillator substance (Packard Microscint 20) in a measuring device (TopCount of Packard). […] The analysis of the concentration binding curve is carried out on the assumption of one receptor binding site.

hMCH-1R, sequence (Q99705 whole entry): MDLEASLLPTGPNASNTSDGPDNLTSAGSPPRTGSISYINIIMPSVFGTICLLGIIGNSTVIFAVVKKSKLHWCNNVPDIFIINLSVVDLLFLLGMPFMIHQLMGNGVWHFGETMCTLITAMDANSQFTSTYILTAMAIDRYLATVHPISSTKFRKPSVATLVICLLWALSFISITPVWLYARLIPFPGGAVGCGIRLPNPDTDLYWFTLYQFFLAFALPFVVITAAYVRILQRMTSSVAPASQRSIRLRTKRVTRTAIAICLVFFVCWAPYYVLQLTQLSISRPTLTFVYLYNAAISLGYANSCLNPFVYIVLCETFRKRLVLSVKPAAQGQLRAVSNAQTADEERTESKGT

| Compound | IC50 [nM] |
| --- | --- |
| Cc1cc(CN2CC(O)C2)ccc1C(=O)Cn1ccc(OCc2ccccc2)cc1=O [Example 1.1, 4-Benzyloxy-1-{2-[4-(3-hydroxy-azetidin-1-ylmethyl)-2-methyl-phenyl]-2-oxo-ethyl}-1H-pyridin-2-one] | 20 |
| CNCc1ccc(C(=O)Cn2ccc(OCc3ccccc3)cc2=O)c(C)c1 [Example 1.2, 4-Benzyloxy-1-[2-(2-methyl-4-methylaminomethyl-phenyl)-2-oxo-ethyl]-1H-pyridin-2-one] | 19 |
| Cc1cc(CN2CCC(O)CC2)ccc1C(=O)Cn1ccc(OCc2ccccc2)cc1=O [Example 1.3, 4-Benzyloxy-1-{2-[4-(4-hydroxy-piperidin-1-ylmethyl)-2-methyl-phenyl]-2-oxo-ethyl}-1H-pyridin-2-one] | 19 |
| Cc1cc(CN2CCOCC2)ccc1C(=O)Cn1ccc(OCc2ccccc2)cc1=O [Example 1.4] | 40 |
| Cc1cc(CN2CCN(C)CC2)ccc1C(=O)Cn1ccc(OCc2ccccc2)cc1=O [Example 1.5, 4-Benzyloxy-1-{2-[2-methyl-4-(4-methyl-piperazin-1-ylmethyl)-phenyl]-2-oxo-ethyl}-1H-pyridin-2-one] | 48 |
| Cc1cc(CN2CCC(CO)CC2)ccc1C(=O)Cn1ccc(OCc2ccccc2)cc1=O [Example 1.6, 4-Benzyloxy-1-{2-[4-(4-hydroxymethyl-piperidin-1-ylmethyl)-2-methyl-phenyl]-2-oxo-ethyl}-1H-pyridin-2-one] | 24 |
| Cc1cc(CN2CCCC2)ccc1C(=O)Cn1ccc(OCc2ccccc2)cc1=O [Example 1.7, 4-Benzyloxy-1-[2-(2-methyl-4-pyrrolidin-1-ylmethyl-phenyl)-2-oxo-ethyl]-1H-pyridin-2-one] | 11 |
| Cc1cc(CN2CCCCC2)ccc1C(=O)Cn1ccc(OCc2ccccc2)cc1=O [Example 1.9] | 11 |
| Cc1cc(CN2CCC(C)(O)C2)ccc1C(=O)Cn1ccc(OCc2ccccc2)cc1=O (centres unmarked) [Example 1.10, 4-Benzyloxy-1-{2-[4-(3-hydroxy-3-methyl-pyrrolidin-1-ylmethyl)-2-methyl-phenyl]-2-oxo-ethyl}-1H-pyridin-2-one] | 26 |
| Cc1cc(CN2CC[C@H](O)C2)ccc1C(=O)Cn1ccc(OCc2ccccc2)cc1=O [Example 1.11, (S)-4-Benzyloxy-1-{2-[4-(3-hydroxy-pyrrolidin-1-ylmethyl)-2-methyl-phenyl]-2-oxo-ethyl}-1H-pyridin-2-one] | 30 |
| CCNCc1ccc(C(=O)Cn2ccc(OCc3ccccc3)cc2=O)c(C)c1 [Example 1.12, 4-Benzyloxy-1-[2-(4-ethylaminomethyl-2-methyl-phenyl)-2-oxo-ethyl]-1H-pyridin-2-one] | 21 |
| Cc1cc(CN2CCC[C@H](O)C2)ccc1C(=O)Cn1ccc(OCc2ccccc2)cc1=O [Example 1.13, (S)-4-Benzyloxy-1-{2-[4-(3-hydroxy-piperidin-1-ylmethyl)-2-methyl-phenyl]-2-oxo-ethyl}-1H-pyridin-2-one] | 29 |
| Cc1cc(CN2CC[C@@H](O)C2)ccc1C(=O)Cn1ccc(OCc2ccccc2)cc1=O [Example 1.14] | 53 |
| Cc1cc(CN2CCC[C@@H](O)C2)ccc1C(=O)Cn1ccc(OCc2ccccc2)cc1=O [Example 1.15, (R)-4-Benzyloxy-1-{2-[4-(3-hydroxy-piperidin-1-ylmethyl)-2-methyl-phenyl]-2-oxo-ethyl}-1H-pyridin-2-one] | 31 |
| Cc1cc(CN2CCCC[C@@H]2CO)ccc1C(=O)Cn1ccc(OCc2ccccc2)cc1=O [Example 1.16] | 29 |
| Cc1cc(CN2CCC[C@H]2CO)ccc1C(=O)Cn1ccc(OCc2ccccc2)cc1=O [Example 1.17, (S)-4-Benzyloxy-1-{2-[4-(2-hydroxymethyl-pyrrolidin-1-ylmethyl)-2-methyl-phenyl]-2-oxo-ethyl}-1H-pyridin-2-one] | 26 |
| Cc1cc(CN2CC3CC(C2)C3O)ccc1C(=O)Cn1ccc(OCc2ccccc2)cc1=O (centres unmarked) [Example 1.18] | 16 |
| Cc1cc(CN2CCCCC2)ccc1C(=O)Cn1ccc(OCc2ccc(F)cn2)cc1=O [Example 2.2] | 116 |
| Cc1cc(CN(C)C)ccc1C(=O)Cn1ccc(OCc2ccc(F)cn2)cc1=O [Example 2.5] | 70 |
| CCNCc1ccc(C(=O)Cn2ccc(OCc3ccc(F)cn3)cc2=O)c(C)c1 [Example 2.6] | 134 |
| Cc1cc(CN2CCCCC2)ccc1C(=O)Cn1ccc(OCc2ccc(Cl)cn2)cc1=O [Example 3.6] | 26 |
| CNCc1ccc(C(=O)Cn2ccc(OCc3ccc(Cl)cn3)cc2=O)c(C)c1 [Example 3.10] | 37 |

Further lines, results first:

| IC50 [nM] | Compound |
| --- | --- |
| 67 | Cc1cc(CN2CCCC2)ccc1C(=O)Cn1ccc(OCc2ccc(F)cn2)cc1=O [Example 2.1, 4-(5-Fluoro-pyridin-2-ylmethoxy)-1-[2-(2-methyl-4-pyrrolidin-1-ylmethyl-phenyl)-2-oxo-ethyl]-1H-pyridin-2-one] |
| 93 | Cc1cc(CN2CCC(O)CC2)ccc1C(=O)Cn1ccc(OCc2ccc(F)cn2)cc1=O [Example 2.3] |
| 70 | Cc1cc(CN2CC[C@H](O)C2)ccc1C(=O)Cn1ccc(OCc2ccc(F)cn2)cc1=O [Example 2.4] |
| 79 | CCN1CCN(Cc2ccc(C(=O)Cn3ccc(OCc4ccc(Cl)cn4)cc3=O)c(C)c2)CC1 [Example 3.1, 4-(5-Chloro-pyridin-2-ylmethoxy)-1-{2-[4-(4-ethyl-piperazin-1-ylmethyl)-2-methyl-phenyl]-2-oxo-ethyl}-1H-pyridin-2-one] |
| 36 | Cc1cc(CN2CCC[C@H]2CO)ccc1C(=O)Cn1ccc(OCc2ccc(Cl)cn2)cc1=O [Example 3.2, 4-(5-Chloro-pyridin-2-ylmethoxy)-1-{2-[4-((S)-2-hydroxymethyl-pyrrolidin-1-ylmethyl)-2-methyl-phenyl]-2-oxo-ethyl}-1H-pyridin-2-one] |
| 39 | Cc1cc(CN2CC[C@H](O)C2)ccc1C(=O)Cn1ccc(OCc2ccc(Cl)cn2)cc1=O [Example 3.3] |
| 38 | Cc1cc(CN2CC[C@@H](O)C2)ccc1C(=O)Cn1ccc(OCc2ccc(Cl)cn2)cc1=O [Example 3.4, (R)-4-(5-Chloro-pyridin-2-ylmethoxy)-1-{2-[4-(3-hydroxy-pyrrolidin-1-ylmethyl)-2-methyl-phenyl]-2-oxo-ethyl}-1H-pyridin-2-one] |
| 84 | Cc1cc(CN2CCN(C)CC2)ccc1C(=O)Cn1ccc(OCc2ccc(Cl)cn2)cc1=O [Example 3.5] |
| 36 | Cc1cc(CN2CCC(O)CC2)ccc1C(=O)Cn1ccc(OCc2ccc(Cl)cn2)cc1=O [Example 3.7] |
| 26 | Cc1cc(CN2CCCC2)ccc1C(=O)Cn1ccc(OCc2ccc(Cl)cn2)cc1=O [Example 3.8, 4-(5-Chloro-pyridin-2-ylmethoxy)-1-[2-(2-methyl-4-pyrrolidin-1-ylmethyl-phenyl)-2-oxo-ethyl]-1H-pyridin-2-one] |
| 26 | CCNCc1ccc(C(=O)Cn2ccc(OCc3ccc(Cl)cn3)cc2=O)c(C)c1 [Example 3.11, 4-(5-Chloro-pyridin-2-ylmethoxy)-1-[2-(4-ethylaminomethyl-2-methyl-phenyl)-2-oxo-ethyl]-1H-pyridin-2-one] |
| 34 | Cc1cc(CN2CCC(CO)CC2)ccc1C(=O)Cn1ccc(OCc2ccc(Cl)cn2)cc1=O [Example 3.12] |
| 34 | Cc1cc(CN2CCC[C@@H](O)C2)ccc1C(=O)Cn1ccc(OCc2ccc(Cl)cn2)cc1=O [Example 3.13, (R)-4-(5-Chloro-pyridin-2-ylmethoxy)-1-{2-[4-(3-hydroxy-piperidin-1-ylmethyl)-2-methyl-pheny]-2-oxo-ethyl}-1H-pyridin-2-one] |
| 37 | Cc1cc(CN2CCCC[C@@H]2CO)ccc1C(=O)Cn1ccc(OCc2ccc(Cl)cn2)cc1=O [Example 3.14] |
| 31 | Cc1cc(CN2CC(O)C2)ccc1C(=O)Cn1ccc(OCc2ccc(Cl)cn2)cc1=O [Example 3.15, 4-(5-Chloro-pyridin-2-ylmethoxy)-1-{2-[4-(3-hydroxy-azetidin-1-ylmethyl)-2-methyl-phenyl]-2-oxo-ethyl}-1H-pyridin-2-one] |
| 19 | Cc1cc(CN2CC3CC(C2)C3O)ccc1C(=O)Cn1ccc(OCc2ccc(Cl)cn2)cc1=O (centres unmarked) [Example 3.16] |
| 16 | Cc1cc(CN2CCC(O)CC2)ccc1C(=O)Cn1ccc(OCc2ccc(Br)cn2)cc1=O [Example 4.2, 4-(5-Bromo-pyridin-2-ylmethoxy)-1-{2-[4-(4-hydroxy-piperidin-1-ylmethyl)-2-methyl-phenyl]-2-oxo-ethyl}-1H-pyridin-2-one] |
| 13 | Cc1cc(CN2CCC(CO)CC2)ccc1C(=O)Cn1ccc(OCc2ccc(Br)cn2)cc1=O [Example 4.3, 4-(5-Bromo-pyridin-2-ylmethoxy)-1-{2-[4-(4-hydroxymethyl-piperidin-1-ylmethyl)-2-methyl-phenyl]-2-oxo-ethyl}-1H-pyridin-2-one] |
| 18 | Cc1cc(CN2CCC[C@H](O)C2)ccc1C(=O)Cn1ccc(OCc2ccc(Br)cn2)cc1=O [Example 4.4, (S)-4-(5-Bromo-pyridin-2-ylmethoxy)-1-{2-[4-(3-hydroxy-piperidin-1-ylmethyl)-2-methyl-phenyl]-2-oxo-ethyl}-1H-pyridin-2-one] |
| 13 | Cc1cc(CN2CCC[C@H]2CO)ccc1C(=O)Cn1ccc(OCc2ccc(Br)cn2)cc1=O [Example 4.5, (S)-4-(5-Bromo-pyridin-2-ylmethoxy)-1-{2-[4-(2-hydroxymethyl-pyrrolidin-1-ylmethyl)-2-methyl-phenyl]-2-oxo-ethyl}-1H-pyridin-2-one] |
| 50 | CCNCc1ccc(C(=O)Cn2ccc(OCc3ccc(Br)cn3)cc2=O)c(C)c1 [Example 4.6, 4-(5-Bromo-pyridin-2-ylmethoxy)-1-[2-(4-ethylaminomethyl-2-methyl-phenyl)-2-oxo-ethyl]-1H-pyridin-2-one] |
| 14 | Cc1cc(CN2CCCC[C@@H]2CO)ccc1C(=O)Cn1ccc(OCc2ccc(Br)cn2)cc1=O [Example 4.7, (R)-4-(5-Bromo-pyridin-2-ylmethoxy)-1-{2-[4-(2-hydroxymethyl-piperidin-1-ylmethyl)-2-methyl-phenyl]-2-oxo-ethyl}-1H-pyridin-2-one] |
